The record followed here is patent publication US8143257B2, “Substituted phenols as active agents inhibiting VEGF production” (PTC Therapeutics, Inc., priority 2004, dated 2012).

Read-outs that look alike come from different tables or passages of the source. Where only a bound is given, the exact number is not on record here.

In the assay the test system is hypoxia-inducible endogenous VEGF expression. In words: Assay to evaluate effect on hypoxia-inducible endogenous VEGF expression (VEGF ELISA, HeLa cells). Format: cell-based. The conditions noted are these: read-out: ELISA EC50 (effective concentration required to lower the amount of VEGF translation by 50%). How it is done: Assay to Evaluate Effect on Hypoxia-Inducible Endogenous VEGF Expression
The ability of the compounds of the invention to modulate hypoxia-inducible endogenous VEGF expression is analyzed as follows. VEGF protein levels are monitored by an ELISA assay (R&D Systems). Briefly, HeLa cells are cultured for 24-48 hours under hypoxic conditions (1% O2, 5% CO2, balanced with nitrogen) in the presence or absence of a compound of the invention. The conditioned media is then assayed by ELISA, and the concentration of VEGF is calculated from the standard ELISA curve of each assay.
A dose-response analysis is performed using the ELISA assay and conditions described above. A series of, e.g., seven different concentrations are analyzed. In parallel, a dose-response cytotoxicity assay is performed using Cell Titer Glo (Promega) under the same conditions as the ELISA to ensure that the inhibition of VEGF expression is not due to the cytotoxicity. Dose-response curves are plotted using percentage inhibition versus concentration of the compound, and EC50 and CC50 values are generated for each compound with the maximal inhibition set as 100% and the minimal inhibition as 0%.
The most preferred compounds of the invention are those with μM values of 3 or less.
For orientation: In an ELISA, binding on a coated surface is turned into a signal by an enzyme label.

[1] abbreviates: HeLa cells cultured 24-48 hours under hypoxic conditions (1% O2, 5% CO2), VEGF in conditioned media by ELISA.
[2] abbreviates: Homo sapiens, HeLa cells cultured 24-48 hours under hypoxic conditions (1% O2, 5% CO2), VEGF in conditioned media by ELISA.

On to `Cc1ccc2cc(OC(=O)N3CC(C)CC(C)C3)ccc2n1` (stereo not shown) [3,5-Dimethyl-piperidine-1-carboxylic acid 2-methyl-quinolin-6-yl ester], for which the EC50 under setting [1] is more than 30 µM.
With `CC1CC(C)CN(C(=O)Oc2ncc3ccccc3c2Cl)C1` (stereo not shown) [3,5-Dimethyl-piperidine-1-carboxylic acid 4-chloro-isoquinolin-3-yl ester], the EC50 under setting [2] is more than 10 µM.
The same measure, in the same setting: the value for `CC1CC(C)CN(C(=O)Nc2ccc3ccccc3c2Br)C1` (stereo not shown) [3,5-Dimethyl-piperidine-1-carboxylic acid (1-bromo-naphthalen-2-yl)-amide] was more than 10 µM; that for `CC1CC(C)CN(C(=O)Nc2ccc3ccccc3c2Cl)C1` (stereo not shown) [3,5-Dimethyl-piperidine-1-carboxylic acid (1-chloro-naphthalen-2-yl)-amide] was more than 10 µM.
On to `CC1CC(C)CN(C(=O)Oc2cc3ccccc3cn2)C1` (stereo not shown) [3,5-Dimethyl-piperidine-1-carboxylic acid isoquinolin-3-yl ester], for which the EC50 (Homo sapiens, HeLa) is more than 30 µM.
With `CC1CC(C)CN(C(=O)Nc2ccc3ccccc3c2)C1` (stereo not shown) [3,5-Dimethyl-piperidine-1-carboxylic acid naphthalen-2-ylamide], the EC50 under setting [2] is more than 10 µM.
Still for that read-out and setting: as for `COc1ccc2ccc(OC(=O)N3CCN(c4ccc(Cl)cc4)CC3)c(Br)c2c1` [4-(4-Chloro-phenyl)-piperazine-1-carboxylic acid 1-bromo-7-methoxy-naphthalen-2-yl ester], the figure is more than 10 µM; as for `O=C(Nc1ccc2ccccc2c1Cl)N1CCN(c2ccc(Cl)cc2)CC1` [4-(4-Chloro-phenyl)-piperazine-1-carboxylic acid (1-chloro-naphthalen-2-yl)-amide], more than 10 µM.
As for `COc1ccc2ccc(OC(=O)N3CCC(C(O)(c4ccccc4)c4ccccc4)CC3)c(Br)c2c1` [4-(Hydroxy-diphenyl-methyl)-piperidine-1-carboxylic acid 1-bromo-7-methoxy-naphthalen-2-yl ester], the EC50 under setting [2] was more than 10 µM.
Still for that read-out and setting: the value for `O=C(Oc1ccc2ccccc2c1Br)N1CCC(C(O)(c2ccccc2)c2ccccc2)CC1` [4-(Hydroxy-diphenyl-methyl)-piperidine-1-carboxylic acid 1-bromo-naphthalen-2-yl ester] was 0.0202 µM; that for `CS(=O)(=O)Nc1c(OC(=O)N2CCC(C(O)(c3ccccc3)c3ccccc3)CC2)ccc2ccccc12` [4-(Hydroxy-diphenyl-methyl)-piperidine-1-carboxylic acid 1-methanesulfonylamino-naphthalen-2-yl ester] was more than 5 µM.
Still for that read-out and setting: the value for `O=C(Nc1ccc2ccccc2c1Br)N1CCC(C(O)(c2ccccc2)c2ccccc2)CC1` [4-(Hydroxy-diphenyl-methyl)-piperidine-1-carboxylic acid (1-bromo-naphthalen-2-yl)-amide] was 0.22 µM; that for `O=C(Nc1ccc2ccccc2c1Cl)N1CCC(C(O)(c2ccccc2)c2ccccc2)CC1` [4-(Hydroxy-diphenyl-methyl)-piperidine-1-carboxylic acid (1-chloro-naphthalen-2-yl)-amide] was 0.794 µM.
On the same count and under the same terms, the value for `CC(=O)c1c(OC(=O)N2CCC(Cc3ccccc3)CC2)ccc2ccccc12` [4-Benzyl-piperidine-1-carboxylic acid 1-acetyl-naphthalen-2-yl ester] was 2.6 µM; that for `O=C(Oc1ccc2ccccc2c1Br)N1CCC(Cc2ccccc2)CC1` [4-Benzyl-piperidine-1-carboxylic acid 1-bromo-naphthalen-2-yl ester] was 0.259 µM; that for `CS(=O)(=O)Nc1c(OC(=O)N2CCC(Cc3ccccc3)CC2)ccc2ccccc12` [4-Benzyl-piperidine-1-carboxylic acid 1-methanesulfonylamino-naphthalen-2-yl ester] was more than 5 µM.
Regarding `O=C(Oc1cc(Cl)c(Cl)cc1Cl)N1CCC(Cc2ccccc2)CC1` [4-Benzyl-piperidine-1-carboxylic acid 2,4,5-trichloro-phenyl ester], under setting [2], the EC50 worked out at 7.09 µM.
Turning to `O=C(Oc1c(Cl)cc(Cl)cc1Cl)N1CCC(Cc2ccccc2)CC1` [4-Benzyl-piperidine-1-carboxylic acid 2,4,6-trichloro-phenyl ester], the EC50 under setting [2] was 3.72 µM.
On the same count and under the same terms, the value for `Cc1ccc(OC(=O)N2CCC(Cc3ccccc3)CC2)c(Br)c1` [4-Benzyl-piperidine-1-carboxylic acid 2-bromo-4-methyl-phenyl ester] was more than 30 µM; that for `O=C(Oc1ccccc1Br)N1CCC(Cc2ccccc2)CC1` [4-Benzyl-piperidine-1-carboxylic acid 2-bromo-phenyl ester] was more than 30 µM; that for `Cc1ccc2cc(OC(=O)N3CCC(Cc4ccccc4)CC3)ccc2n1` [4-Benzyl-piperidine-1-carboxylic acid 2-methyl-quinolin-6-yl ester] was more than 30 µM.
Still for that read-out and setting: the value for `O=C(Nc1ccc2ccccc2c1Br)N1CCC(Cc2ccccc2)CC1` [4-Benzyl-piperidine-1-carboxylic acid (1-bromo-naphthalen-2-yl)-amide] was more than 10 µM.
Same read-out and setting: as for `O=C(Nc1ccc2ccccc2c1Cl)N1CCC(Cc2ccccc2)CC1` [4-Benzyl-piperidine-1-carboxylic acid (1-chloro-naphthalen-2-yl)-amide], the figure is more than 10 µM; as for `O=C(Oc1cc2ccccc2cn1)N1CCC(Cc2ccccc2)CC1` [4-Benzyl-piperidine-1-carboxylic acid isoquinolin-3-yl ester], more than 30 µM.
With `O=C(Nc1ccc2ccccc2c1)N1CCC(Cc2ccccc2)CC1` [4-Benzyl-piperidine-1-carboxylic acid naphthalen-2-ylamide], the EC50 under setting [2] was 4.39 µM.
`CC(=O)c1c(OC(=O)N2CCCN(C)CC2)ccc2ccccc12` [4-Methyl-[1,4]diazepane-1-carboxylic acid 1-acetyl-naphthalen-2-yl ester]: the EC50 (Homo sapiens, HeLa) was more than 30 µM.
In the case of `Cc1ccc(OC(=O)N2CCCN(C)CC2)c(Br)c1` [4-Methyl-[1,4]diazepane-1-carboxylic acid 2-bromo-4-methyl-phenyl ester], the EC50 (Homo sapiens, HeLa) was more than 30 µM.
Same read-out and setting: the value for `CN1CCCN(C(=O)Oc2ccccc2Br)CC1` [4-Methyl-[1,4]diazepane-1-carboxylic acid 2-bromo-phenyl ester] was more than 30 µM.
On the same count and under the same terms, as for `CN1CCN(C(=O)Oc2cc(Cl)c(Cl)cc2Cl)CC1` [4-Methyl-piperazine-1-carboxylic acid 2,4,5-trichloro-phenyl ester], the figure is more than 30 µM.
Turning to `CN1CCN(C(=O)Oc2c(Cl)cc(Cl)cc2Cl)CC1` [4-Methyl-piperazine-1-carboxylic acid 2,4,6-trichloro-phenyl ester], the EC50 (Homo sapiens, HeLa) stood at 14.2 µM.
For the molecule `Cc1ccc2cc(OC(=O)N3CCN(C)CC3)ccc2n1` [4-Methyl-piperazine-1-carboxylic acid 2-methyl-quinolin-6-yl ester], the EC50 (Homo sapiens, HeLa) was more than 30 µM.
On the same count and under the same terms, as for `CN1CCN(C(=O)Oc2ncc3ccccc3c2Cl)CC1` [4-Methyl-piperazine-1-carboxylic acid 4-chloro-isoquinolin-3-yl ester], the figure is more than 10 µM; as for `CN1CCN(C(=O)Oc2cc3ccccc3cn2)CC1` [4-Methyl-piperazine-1-carboxylic acid isoquinolin-3-yl ester], more than 30 µM.
Take `CC(=O)c1c(OC(=O)N2CCC(C)CC2)ccc2ccccc12` [4-Methyl-piperidine-1-carboxylic acid 1-acetyl-naphthalen-2-yl ester]: under setting [2], the EC50 was determined as 1.85 µM.
Still for that read-out and setting: the value for `CC1CCN(C(=O)Oc2ccc3ccccc3c2Br)CC1` [4-Methyl-piperidine-1-carboxylic acid 1-bromo-naphthalen-2-yl ester] was 0.469 µM; that for `CC1CCN(C(=O)Oc2cc(Cl)c(Cl)cc2Cl)CC1` [4-Methyl-piperidine-1-carboxylic acid 2,4,5-trichloro-phenyl ester] was 16.2 µM.
Same read-out and setting: the value for `CC1CCN(C(=O)Oc2c(Cl)cc(Cl)cc2Cl)CC1` [4-Methyl-piperidine-1-carboxylic acid 2,4,6-trichloro-phenyl ester] was more than 30 µM; that for `Cc1ccc(OC(=O)N2CCC(C)CC2)c(Br)c1` [4-Methyl-piperidine-1-carboxylic acid 2-bromo-4-methyl-phenyl ester] was more than 30 µM.
Turning to `CC1CCN(C(=O)Oc2ccccc2Br)CC1` [4-Methyl-piperidine-1-carboxylic acid 2-bromo-phenyl ester], the EC50 (Homo sapiens, HeLa) was more than 30 µM.
`Cc1ccc2cc(OC(=O)N3CCC(C)CC3)ccc2n1` [4-Methyl-piperidine-1-carboxylic acid 2-methyl-quinolin-6-yl ester]: the EC50 under setting [1] was more than 30 µM.
For `CC1CCN(C(=O)Oc2cc3ccccc3cn2)CC1` [4-Methyl-piperidine-1-carboxylic acid isoquinolin-3-yl ester], under setting [2], the EC50 was more than 30 µM.
On the same count and under the same terms, as for `COc1ccc2ccc(OC(=O)N3CCN(c4ccccc4)CC3)c(Br)c2c1` [4-Phenyl-piperazine-1-carboxylic acid 1-bromo-7-methoxy-naphthalen-2-yl ester], the figure is more than 10 µM; as for `CS(=O)(=O)Nc1c(OC(=O)N2CCN(c3ccccc3)CC2)ccc2ccccc12` [4-Phenyl-piperazine-1-carboxylic acid 1-methanesulfonylamino-naphthalen-2-yl ester], more than 5 µM.
